Where two headings read alike, the source gives them in different places.

In one experiment the target is T1, human δ receptors (Homo sapiens, UniProt P41143).
T1 construct: expressed in transfected cells
Kind of experiment: Human δ receptor functional assay, GTP[γ]35S binding. It is filed as biochemical. The settings on record: for Emax: in relation to SNC80. The procedure: (§1) The agonist activity of the compounds is measured by determining the degree to which the compounds receptor complex activates the binding of GTP to G-proteins to which the receptors are coupled. In the GTP binding assay, GTP[γ]^35S is combined with test compounds and membranes from BEK-293S cells expressing the cloned human opioid receptors or from homogenised rat or mouse brain. Agonists stimulate GTP[γ]^35S binding in these membranes. The EC50 and Emax values of compounds are determined from dose-response curves. Right shifts of the dose response curve by the delta antagonist naltrindole are performed to verify that agonist activity is mediated through delta receptors. For human δ receptor functional assays, EC50 (low) is measured when the human δ receptors used in the assay were expressed at lower levels in comparison with those used in determining EC50 (high). The Emax values were determined in relation to the standard δ agonist SNC80, i.e., higher than 100% is a compound that has better efficacy than SNC80.
(§2) Rat brain membranes are thawed at 37° C., passed 3 times through a 25-gauge blunt-end needle and diluted in the GTPγS binding (50 mM Hepes, 20 mM NaOH, 100 mM NaCl, 1 mM EDTA, 5 mM MgCl2, pH 7.4, Add fresh: 1 mM DTT, 0.1% BSA). 120 μM GDP final is added membranes dilutions. […] The basal and maximal stimulated binding are determined in absence and presence of 3 μM SNC80. The assay performed on HEK 293S cells stably expressing cloned Delta receptors is done in a slightly different buffer (50 mM Hepes, 20 mM NaOH, 200 mM NaCl, 1 mM EDTA, 5 mM MgCl2, pH 7.4, Add fresh: 0.5% BSA, no DTT) and with a 3 μM final conc. of GDP.

Experiment [1] deals with T2, δ receptors in rat brain membranes (Rattus norvegicus, UniProt P33533).
T2 construct: membranes from BEK-293S cells expressing the cloned human opioid receptors or from homogenised rat or mouse brain; from tissue; host or cells: rat brain
T2 sequence (P33533 whole entry): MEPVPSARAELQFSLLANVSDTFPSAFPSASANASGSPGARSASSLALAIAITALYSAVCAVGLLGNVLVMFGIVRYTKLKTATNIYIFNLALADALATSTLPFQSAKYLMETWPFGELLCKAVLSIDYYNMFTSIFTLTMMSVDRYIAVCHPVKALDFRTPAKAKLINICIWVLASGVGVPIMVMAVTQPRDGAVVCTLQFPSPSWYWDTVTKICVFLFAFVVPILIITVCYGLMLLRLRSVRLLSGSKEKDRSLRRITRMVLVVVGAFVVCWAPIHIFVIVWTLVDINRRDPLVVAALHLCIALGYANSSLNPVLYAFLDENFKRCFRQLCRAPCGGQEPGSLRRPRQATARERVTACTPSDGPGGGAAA
As to the kind of experiment: Rat brain functional assay, GTPγ35S binding. The following applies: for Emax: in relation to SNC80, read-out: EC50rb Emax. It is filed as biochemical. Here is the method:
Rat brains are weighed and rinsed in ice-cold PBS (containing 2.5 mM EDTA, pH 7.4). The brains are homogenized with a polytron for 30 sec (rat) in ice-cold lysis buffer (50 mM Tris, pH 7.0, 2.5 mM EDTA, with phenylmethylsulfonyl fluoride added just prior use to […] from a 0.5 M stock in DMSO:ethanol).
as §1, with “(high).” for “(high). The Emax values were determined in relation to the standard δ agonist SNC80, i.e., higher than 100% is a compound that has better efficacy than SNC80.”
as §2

A further experiment deals with T3, cloned human δ receptors (Homo sapiens, UniProt P41143).
T3 construct: expressed in transfected cells
T3 sequence (P41143 whole entry): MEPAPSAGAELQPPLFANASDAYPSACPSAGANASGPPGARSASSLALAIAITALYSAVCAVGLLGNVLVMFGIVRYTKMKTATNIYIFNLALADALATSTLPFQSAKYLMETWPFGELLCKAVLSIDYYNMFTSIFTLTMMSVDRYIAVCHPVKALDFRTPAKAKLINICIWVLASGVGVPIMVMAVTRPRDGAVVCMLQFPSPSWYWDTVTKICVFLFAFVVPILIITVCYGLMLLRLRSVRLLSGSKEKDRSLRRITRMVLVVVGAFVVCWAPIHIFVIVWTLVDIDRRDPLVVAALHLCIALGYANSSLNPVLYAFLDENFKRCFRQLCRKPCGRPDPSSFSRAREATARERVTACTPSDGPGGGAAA
As to the kind of experiment: Binding assay, displacement of 125I-Deltorphin II (IC50hd).

The target in the next experiment is T4, cloned human μ receptors (Homo sapiens, UniProt P35372).
T4 construct: expressed in transfected cells; host or cells: human 293S (HEK 293S) cells
T4 sequence (P35372 whole entry): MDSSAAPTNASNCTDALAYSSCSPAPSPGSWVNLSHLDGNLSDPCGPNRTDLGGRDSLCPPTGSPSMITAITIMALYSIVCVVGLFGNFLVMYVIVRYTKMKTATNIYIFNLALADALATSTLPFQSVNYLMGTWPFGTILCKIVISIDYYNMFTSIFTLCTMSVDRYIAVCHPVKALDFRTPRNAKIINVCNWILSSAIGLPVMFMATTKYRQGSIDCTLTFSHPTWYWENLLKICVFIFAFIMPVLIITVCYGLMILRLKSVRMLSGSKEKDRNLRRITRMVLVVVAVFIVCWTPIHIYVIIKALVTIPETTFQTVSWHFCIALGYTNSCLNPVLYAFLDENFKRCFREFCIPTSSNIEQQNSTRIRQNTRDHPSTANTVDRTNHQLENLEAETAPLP
Kind of experiment: Binding assay, displacement of 125I-FK33824 (IC50hm).

The target in another experiment is T5, cloned human κ receptors (Homo sapiens, UniProt P41145).
T5 construct: expressed in transfected cells; host or cells: human 293S (HEK 293S) cells
T5 sequence (P41145 whole entry): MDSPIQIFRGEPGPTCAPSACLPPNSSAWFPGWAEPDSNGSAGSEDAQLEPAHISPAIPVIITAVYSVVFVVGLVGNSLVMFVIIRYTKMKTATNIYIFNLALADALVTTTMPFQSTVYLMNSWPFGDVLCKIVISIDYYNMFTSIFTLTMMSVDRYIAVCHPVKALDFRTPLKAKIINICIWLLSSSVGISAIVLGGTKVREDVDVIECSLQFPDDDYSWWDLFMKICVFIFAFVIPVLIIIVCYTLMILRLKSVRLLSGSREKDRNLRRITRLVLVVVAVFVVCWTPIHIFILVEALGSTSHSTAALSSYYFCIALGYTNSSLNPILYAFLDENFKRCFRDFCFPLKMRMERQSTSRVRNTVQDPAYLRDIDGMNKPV
Kind of experiment: Binding assay, displacement of 125I-DPDYN (IC50hk).

[2] abbreviates: human δ receptors expressed at higher levels, read-out: EC50h (high) Emax.
[3] abbreviates: human δ receptors expressed at higher levels, read-out: EC50h (high).
Where [4] appears, read: human δ receptors expressed at lower levels, read-out: EC50h (low) Emax.
Where [5] appears, read: human δ receptor, 293S cell membranes, read-out: IC50hd.
Setting [6] is: EC50h (low), human δ receptors expressed at lower levels.

T1 sequence (P41143 whole entry): as the sequence (P41143 whole entry) above

As for `CCN(CC)C(=O)c1ccc([C@H](c2cccc(N)c2)N2CCN(Cc3ccc(F)cc3)CC2)cc1`, the figures for the Emax (on human δ receptors (setting [2]); at human δ receptors (setting [4]); in experiment [1]) were 104%, 95.3% and 130%, respectively. Moreover, the EC50 at human δ receptors (setting [3]) worked out at 4.18 nM; at human δ receptors (human δ receptors expressed at lower levels, read-out: EC50h (low)), 20.6 nM; in experiment [1] it was 22.8 nM. Besides, the IC50 is 0.587 nM at cloned human δ receptors (setting [5]), 715 nM at cloned human μ receptors and 5520 nM on cloned human κ receptors.
On to `CCN(CC)C(=O)c1ccc([C@@H](c2cccc(N)c2)N2CCN(Cc3ccc(F)cc3)CC2)cc1`, for which the Emax on human δ receptors (setting [2]) turned out to be 89.1%; in experiment [1] it was 66.3%. Moreover, the EC50 at human δ receptors (setting [3]) was determined as 100 nM; in experiment [1] it was 466 nM. Besides, the IC50 is 8.8 nM on cloned human δ receptors (setting [5]), 3320 nM at cloned human μ receptors and more than 10000 nM at cloned human κ receptors.
At human δ receptors (setting [6]), `CCN(CC)C(=O)c1ccc([C@H](c2cccc(N)c2)N2CCN(Cc3ccccc3F)CC2)cc1` yielded an EC50 of 48.1 nM. Besides, at human δ receptors (setting [4]), the Emax turned out to be 90%. Moreover, the IC50 came out at 0.717 nM at cloned human δ receptors, 2260 nM on cloned human μ receptors and 7260 nM at cloned human κ receptors.
Taken in the same sequence, the figures for `CCN(CC)C(=O)c1ccc([C@H](c2cccc(N)c2)N2CCN(Cc3cccc(F)c3)CC2)cc1` were 77.4 nM, 84.4%, 1.08 nM, 2740 nM and 5770 nM.

The record behind these values is patent publication US20060030569A1, “Diarylmethyl piperazine derivatives, preparations thereof and uses thereof” (AstraZeneca AB, priority 2004, published 2006).
